pIC50: −log10 of the molar value. Where two headings read alike, the source gives them in different places. Some results are limits rather than exact numbers.

The results in this text go back to patent US20240174637A1, “DEGRADERS OF GRK2 AND USES THEREOF” (Sonata Therapeutics, Inc., priority 2021, published 2024).

In one assay the test system is PAXF1657 EV. As to the kind of experiment: 7-day cellular proliferation assay (CellTiter-Glo), PAXF1657 EV. The class given is cell-based. The following applies: for pIC50: proliferation, read-out: GeoMean IC50 (UM) PAXF1657 EV; for IC50: 168 h, 7-day, read-out: 7-day proliferation assay: IC50 GeoMean (uM) [Cell Line: PAXF1657 EV]. An outline of the steps:
(§1)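 PAXF1657 pancreatic cancer cells (GRK2-overexpressing vs empty vector; CRISPR GRK2 knockout vs non-targeting control) were seeded at 500 cells/well in RPMI1640/10% FBS, then given a 10-point series, 30 μM-0.0002 μM in 0.3% DMSO. Medium and compound were refreshed after 3 days; CellTiter-Glo luminescence was read at day 7.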

The target of assay [1] is T1, GRK2 (Homo sapiens, UniProt P25098).
T1 sequence (P25098 1-689): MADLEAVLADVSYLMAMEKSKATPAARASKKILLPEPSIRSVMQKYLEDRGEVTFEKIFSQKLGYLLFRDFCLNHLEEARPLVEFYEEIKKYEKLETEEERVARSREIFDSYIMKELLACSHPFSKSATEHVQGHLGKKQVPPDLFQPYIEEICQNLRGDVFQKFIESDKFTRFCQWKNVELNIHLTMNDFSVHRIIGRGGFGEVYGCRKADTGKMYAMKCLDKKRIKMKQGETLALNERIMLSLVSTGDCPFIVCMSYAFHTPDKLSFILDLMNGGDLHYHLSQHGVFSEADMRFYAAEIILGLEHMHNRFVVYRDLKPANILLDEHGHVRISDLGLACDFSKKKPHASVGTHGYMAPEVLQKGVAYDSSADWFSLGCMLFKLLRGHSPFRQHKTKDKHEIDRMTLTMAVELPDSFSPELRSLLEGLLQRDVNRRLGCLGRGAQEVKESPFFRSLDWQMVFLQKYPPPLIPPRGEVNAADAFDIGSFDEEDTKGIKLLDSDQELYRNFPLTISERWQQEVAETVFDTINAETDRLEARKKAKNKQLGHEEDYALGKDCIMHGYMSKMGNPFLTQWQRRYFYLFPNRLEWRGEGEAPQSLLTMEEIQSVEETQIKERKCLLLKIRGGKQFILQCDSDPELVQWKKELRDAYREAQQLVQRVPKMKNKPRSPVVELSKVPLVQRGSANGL
As to the kind of experiment: GRK2 Inhibition Assay (TR-FRET, Example 1). The class given is biochemical. The note with it: for pIC50: Table 4, Example 1 assay, read-out: Enzymatic GRK2 IC50: Av IC50 GRK2; for IC50: TR-FRET, 7 μM ATP, read-out: Enzymatic GRK2 Assay: IC50 (nM) (Example 1). In outline: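 GRK2 (1 nM) pre-incubated 30 min RT with compounds in HEPES/MgCl2/DTT/Tween-20/EGTA buffer, then reacted 90 min RT with 7 μM ATP and 50 nM ULight-TopoIIα substrate. Stopped with EDTA plus Eu anti-TopoIIα antibody; TR-FRET read after 60 min.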
(In general: Time-resolved FRET reads energy transfer from a long-lived donor to a nearby acceptor.)

For the next assay, the system named is PAXF1657 KO Clone #4. Description: 7-day cellular proliferation assay (CellTiter-Glo), PAXF1657 KO Clone #4. It is filed as cell-based. An outline of the steps: as §1
Background: In ATP-based viability assays light output follows the ATP content of the culture.

Assay [2] concerns the target T1, GRK2. As to the kind of experiment: GRK2 Degradation Assay and Western Blot in PAXF1657 cells. Also on record: endogenous in cells; host or cells: PAXF1657. It is filed as cell-based. An outline of the steps: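 PAXF1657 cells grown to 70% confluency, then treated with compounds at 0–10 μM for 6 to 24 h at 37 °C. Lysates in PBS with 1% NP40 run on SDS-PAGE. GRK2 protein detected by western blot with β-actin as loading reference, using ECL chemiluminescence.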
On the technique in general: A western blot detects proteins with antibodies after separation by electrophoresis.

Setting [3] is: proliferation, read-out: GeoMean IC50 (uM) PAXF1657 KO Clone #4.
Where [4] appears, read: Conc 0.3 uM, read-out: Degradation Assay - 3 point: Degradation (%).
Where [5] appears, read: Conc 1 uM, read-out: Degradation Assay - 3 point: Degradation (%).
Setting [6] is: Conc 3 uM, read-out: Degradation Assay - 3 point: Degradation (%).
Where [7] appears, read: 168 h, 7-day, read-out: 7-day proliferation assay: IC50 GeoMean (uM) [Cell Line: PAXF1657 KO Clone #4].
[8] abbreviates: 0.3 uM, PAXF1657 EV, 24 hrs, read-out: % GRK2 degradation at 0.3 uM in PAXF1657 EV (24 hrs).
[9] abbreviates: 1 uM, PAXF1657 EV, 24 hrs, read-out: % GRK2 degradation at 1 uM in PAXF1657 EV (24 hrs).
Where [10] appears, read: 3 uM, PAXF1657 EV, 24 hrs, read-out: % GRK2 degradation at 3 uM in PAXF1657 EV (24 hrs).

In the case of `C[C@@H](NC(=O)c1cccc(NCc2nnc(-c3ccncn3)n2C)c1)c1cccc(OCCCCCCOCCOCCOCCC(=O)N2CCN(c3cc4c(cc3F)C(=O)N(C3CCC(=O)NC3=O)C4=O)CC2)c1` (stereo partly drawn) [Compound D130, N-((1R)-1-(3-(6-(2-(2-(3-(4-(2-(2,6-dioxopiperidin-3-yl)-6-fluoro-1,3-dioxoisoindolin-5-yl)piperazin-1-yl)-3-oxopropoxy)ethoxy)ethoxy)hexyloxy)phenyl)ethyl)-3-((4-methyl-5-(pyrimidin-4-yl)-4H-1,2,4-triazol-3-yl)methylamino)benzamide], the negative-log IC50 (pIC50) in the assay on PAXF1657 EV was 6.06; at GRK2 [1] it was 7.75. Further, in the assay on PAXF1657 KO Clone #4 (setting [3]), the IC50 came to 24.7 µM. On GRK2 [2] (setting [4]), the inhibition at 0.3 µM is 78.7%. Also, at GRK2 [2] (setting [5]), the inhibition at 1 µM is 84.7%. Also, on GRK2 [2] (setting [6]), the inhibition at 3 µM is 90.7%. Also, the DC50 at GRK2 [2] (PAXF1657, 24 h, read-out: Degradation Assay - Full Dose Response: IC50 (uM) [cell line: PAXF1657, time point: 24 h]) was 0.29 µM.
In the case of `Cn1c(CNc2cccc(C(=O)NCc3cc(OCCCCCOCCCOCC(=O)Nc4cccc5c4CN(C4CCC(=O)NC4=O)C5=O)ccc3F)c2)nnc1-c1ccncn1` (centres unmarked) [Compound D197, N-(5-(5-(3-(2-(2-(2,6-dioxopiperidin-3-yl)-1-oxoisoindolin-4-ylamino)-2-oxoethoxy)propoxy)pentyloxy)-2-fluorobenzyl)-3-((4-methyl-5-(pyrimidin-4-yl)-4H-1,2,4-triazol-3-yl)methylamino)benzamide], the pIC50 in the assay on PAXF1657 EV is 5.23; on GRK2 [1] it was 7.08. In addition, in the assay with PAXF1657 KO Clone #4 (setting [3]), the IC50 was > 30 µM. For the same compound, the inhibition at 0.3 µM at GRK2 [2] (setting [4]) is -6.8%. Further, the inhibition at 1 µM at GRK2 [2] (setting [5]) turned out to be 27.7%. Further, the inhibition at 3 µM at GRK2 [2] (setting [6]) was determined as 54.5%.
Consider `Cc1ncsc1-c1ccc(CNC(=O)[C@@H]2C[C@@H](O)CN2C(=O)[C@@H](NC(=O)CCCCCOCCOCCOCCCCCCOc2cccc(C(C)NC(=O)c3cccc(NCc4nnc(-c5ccncn5)n4C)c3)c2)C(C)(C)C)cc1` (stereo partly drawn) [Compound D91, (2S,4R)-1-((2S)-2-(tert-butyl)-22-(3-(1-(3-(((4-methyl-5-(pyrimidin-4-yl)-4H-1,2,4-triazol-3-yl)methyl)amino)benzamido)ethyl)phenoxy)-4-oxo-10,13,16-trioxa-3-azadocosan-1-oyl)-4-hydroxy-N-(4-(4-methylthiazol-5-yl)benzyl)pyrrolidine-2-carboxamide], for which, in the assay on PAXF1657 EV, the IC50 is < 1 µM. At GRK2 [1], the IC50 is < 100 nM. In the assay with PAXF1657 KO Clone #4 (setting [7]), the IC50 lay within 1 to 10 µM. In addition, on GRK2 [2] (PAXF1657 EV, 24 hrs), the “% GRK2 degradation at 0.03 uM in PAXF1657 EV (24 hrs)” value stood at 37%, the “% GRK2 degradation at 0.1 uM in PAXF1657 EV (24 hrs)” value is on record as 28% and the “% GRK2 degradation at 10 uM in PAXF1657 EV (24 hrs)” value was −4%. Further, the inhibition at 0.3 µM on GRK2 [2] (setting [8]) came to 42%. For the same compound, the inhibition at 1 µM at GRK2 [2] (setting [9]) worked out at 51%. In addition, the inhibition at 3 µM at GRK2 [2] (setting [10]) was 16%.
As to `Cc1ncsc1-c1ccc(CNC(=O)[C@@H]2C[C@@H](O)CN2C(=O)[C@@H](NC(=O)CCCCCOCCOCCOCCCCCCOc2ccc(C(F)(F)F)c(CNC(=O)c3cccc(NCc4nnc(-c5ccncn5)n4C)c3)c2)C(C)(C)C)cc1` [Compound D92, (2S,4R)-1-((S)-2-(tert-butyl)-22-(3-((3-(((4-methyl-5-(pyrimidin-4-yl)-4H-1,2,4-triazol-3-yl)methyl)amino)benzamido)methyl)-4-(trifluoromethyl)phenoxy)-4-oxo-10,13,16-trioxa-3-azadocosan-1-oyl)-4-hydroxy-N-(4-(4-methylthiazol-5-yl)benzyl)pyrrolidine-2-carboxamide], the IC50 was < 1 µM with PAXF1657 EV, < 100 nM on GRK2 [1] and > 10 µM in the assay with PAXF1657 KO Clone #4 (setting [7]). Also, on GRK2 [2] (setting [8]), the inhibition at 0.3 µM amounted to 34%. Besides, at GRK2 [2] (setting [9]), the inhibition at 1 µM stood at 12%. At GRK2 [2] (setting [10]), the inhibition at 3 µM came to 5%.
Turning to `Cc1ncsc1-c1ccc(CNC(=O)[C@@H]2C[C@@H](O)CN2C(=O)[C@@H](NC(=O)COCCCOCCCCCOc2ccc([C@H](C)NC(=O)c3cccc(NCc4nnc(-c5ccncn5)n4C)c3)cc2)C(C)(C)C)cc1` [Compound D151], the pIC50 with PAXF1657 EV is 6.52; on GRK2 [1], < 6.00. Besides, the IC50 in the assay on PAXF1657 KO Clone #4 (setting [3]) came out at 9.65 µM. Also, the inhibition at 0.3 µM at GRK2 [2] (setting [4]) worked out at 56%. The inhibition at 1 µM on GRK2 [2] (setting [5]) is 58%. The inhibition at 3 µM at GRK2 [2] (setting [6]) came to 34%.
As to `Cc1ncsc1-c1ccc(CNC(=O)[C@@H]2C[C@@H](O)CN2C(=O)[C@@H](NC(=O)CCCCCOCCOCCOCCCCCCOc2cccc([C@H](C)NC(=O)c3cccc(NCc4nnc(-c5ccncn5)n4C)c3)c2)C(C)(C)C)cc1` [Compound D78, (2S,4R)-1-((S)-2-(tert-butyl)-22-(3-((S)-1-(3-(((4-methyl-5-(pyrimidin-4-yl)-4H-1,2,4-triazol-3-yl)methyl)amino)benzamido)ethyl)phenoxy)-4-oxo-10,13,16-trioxa-3-azadocosan-1-oyl)-4-hydroxy-N-(4-(4-methylthiazol-5-yl)benzyl)pyrrolidine-2-carboxamide], the IC50 with PAXF1657 EV is < 1 µM; at GRK2 [1] it was < 100 nM; in the assay with PAXF1657 KO Clone #4 (setting [7]) it was 1 to 10 µM. Moreover, the inhibition at 0.3 µM on GRK2 [2] (setting [8]) is -12%. In addition, the inhibition at 1 µM at GRK2 [2] (setting [9]) is -21%. Moreover, the inhibition at 3 µM on GRK2 [2] (setting [10]) was -18%.
For `CC(NC(=O)c1cccc(NCc2nnc(-c3ccncn3)n2C)c1)c1cccc(OCCCCCCOCCOCCOCCCCCC(=O)Nc2cccc3c2CN(C2CCC(=O)NC2=O)C3=O)c1` (centres unmarked) [Compound D67, N-(1-(3-((6-(2-(2-((6-((2-(2,6-dioxopiperidin-3-yl)-1-oxoisoindolin-4-yl)amino)-6-oxohexyl)oxy)ethoxy)ethoxy)hexyl)oxy)phenyl)ethyl)-3-(((4-methyl-5-(pyrimidin-4-yl)-4H-1,2,4-triazol-3-yl)methyl)amino)benzamide], the IC50 with PAXF1657 EV is 1 to 10 µM; on GRK2 [1] it was < 100 nM; in the assay with PAXF1657 KO Clone #4 (setting [7]) it was > 10 µM. Also, the “% GRK2 degradation at 0.03 uM in PAXF1657 EV (24 hrs)” value at GRK2 [2] (PAXF1657 EV, 24 hrs) came to 38%. At GRK2 [2] (PAXF1657 EV, 24 hrs), the “% GRK2 degradation at 0.1 uM in PAXF1657 EV (24 hrs)” value turned out to be 60%. In addition, the inhibition at 0.3 µM at GRK2 [2] (setting [8]) came to 74%. For the same compound, the inhibition at 1 µM on GRK2 [2] (setting [9]) is 87%. Also, the inhibition at 3 µM at GRK2 [2] (setting [10]) was 90%. For the same compound, the “% GRK2 degradation at 10 uM in PAXF1657 EV (24 hrs)” value at GRK2 [2] (PAXF1657 EV, 24 hrs) is on record as 83%. The “GRK2 degradation, dose dependence (FIGS. 1A-1D)” value on GRK2 [2] (24-hour treatment in PAXF1657 cells) was “Dose dependent”.
As for `C[C@@H](NC(=O)c1cccc(NCc2nnc(-c3ccncn3)n2C)c1)c1cccc(OCCCCCCOCC(=O)N2CCN(c3cc4c(cc3F)C(=O)N(C3CCC(=O)NC3=O)C4=O)CC2)c1` (stereo partly drawn) [Compound D133, N-((1R)-1-(3-(6-(2-(4-(2-(2,6-dioxopiperidin-3-yl)-6-fluoro-1,3-dioxoisoindolin-5-yl)piperazin-1-yl)-2-oxoethoxy)hexyloxy)phenyl)ethyl)-3-((4-methyl-5-(pyrimidin-4-yl)-4H-1,2,4-triazol-3-yl)methylamino)benzamide], the pIC50 in the assay on PAXF1657 EV is 6.15; on GRK2 [1], 8.04. In the assay with PAXF1657 KO Clone #4 (setting [3]), the IC50 was > 30 µM. In addition, the inhibition at 0.3 µM on GRK2 [2] (setting [4]) stood at 57.7%. Also, the inhibition at 1 µM at GRK2 [2] (setting [5]) was found to be 82.4%. The inhibition at 3 µM on GRK2 [2] (setting [6]) stood at 86.7%.

The pIC50 is the IC50 on a negative log10 scale, so that one unit is a factor of ten.
